Reference: patent US8686115B2, “Compositions and methods for quantitatively monitoring lipids” (The Board of Trustees of the University of Illinois, priority 2009, dated 2014)
Read-outs that look alike come from different tables or passages of the source.

Assays:
[1] = target: T1, PLCδ-PH (PLCδ PH domain) (Homo sapiens, UniProt P51178); test: SPR equilibrium binding of PLCδ-PH to phosphoinositide-containing LUVs
T1 sequence (P51178 21-130 limits assumed): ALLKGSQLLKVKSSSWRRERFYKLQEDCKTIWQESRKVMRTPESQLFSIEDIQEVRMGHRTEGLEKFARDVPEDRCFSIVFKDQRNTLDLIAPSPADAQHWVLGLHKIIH
Experimental: With respect to FIG. […] The proteins were incubated with a given concentration of IP3 for 5 minutes before injecting into the SPR instrument. Kinetic SPR measurements were performed in 20 mM Tris-HCL, pH 7.4, containing 0.16 KCl. […] A lower concentration of DAN-eENTH was used than that of PLCδ PH because the former has much higher affinity that the latter.
LUVs were prepared by extrusion using a 100 nm-pore membrane. GUVs were prepared by electroformation. The lipid mixture were prepared in chloroform/methanol (3:1) at a total concentration of 0.4 mg/ml, then the lipid solution was spread onto the indium-tin oxide electrode surface and the lipid was dried under vacuum to form a uniform lipid film. Vesicles were grown in a sucrose solution (350 mM) while an electric field (3V, 20 Hz frequency) was applied for 5 hour at room temperature. After 1 to […] of sucrose-loaded GUV solution was added into a well glued onto a coverslip that was placed on the microscope stage. The well contained […] of 20 mM Tris-HCl buffer, pH 7.4, with 0.16 M KCl solution. The diameter of GUVs ranged from 5 to 30 μm.

[2] = target: T2, DAN-eENTH: epsin 1 ENTH domain variant M10C/C96A/S4W, SEQ ID NO: 2, labeled with DAN at C10 (Homo sapiens, UniProt Q9Y6I3, C96A/M10C/S4W); test: SPR equilibrium binding of DAN-eENTH to phosphoinositide-containing LUVs; conditions: SPR
T2 construct: The Epsin1 ENTH domain (1-158 amino acids) was subcloned; GST (C, cleaved yes); made in house; host or cells: E. coli BL21 RIL codon plus
T2 sequence (Q9Y6I3 1-158 S4W/M10C/C96A): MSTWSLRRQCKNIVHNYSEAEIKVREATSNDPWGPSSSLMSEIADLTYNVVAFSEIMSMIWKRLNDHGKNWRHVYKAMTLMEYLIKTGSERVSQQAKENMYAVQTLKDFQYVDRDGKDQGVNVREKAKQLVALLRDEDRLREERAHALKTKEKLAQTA
Description: Provided herein is an ENTH domain of epsin1, which is linked to 2-dimethylamino-6-acyl-naphthalene (DAN). The ENTH domain contains 3 mutations, which are substitutions: M10C, C96A, and S4W. See SEQ ID NO:2. This DAN-eENTH (M10C, C96A, S4W) is an exceptional, high-affinity phosphatidylinositol-4,5-bisphosphate (PtdIns(4,5)P2)-binding protein.
(§1) The ENTH domain was engineered to introduce a single labeling site (M10C) on the membrane binding surface while removing an endogenous Cys (C96A). We also performed the S4W mutation to suppress its residual affinity for another lipid, phosphatidylinositol-3,4,5-trisphosphate (PtdIns(3,4,5)P3) (PtdIns(4,5)P2/PtdIns(3,4,5)P3=4 for wild type and >10 for the mutant) and to enhance the overall affinity for PtdIns(4,5)P2-containing membranes (ca. 4-fold) (Table 1).
(§2) With respect to FIG. 1, an L1 sensor chip was coated with POPC/POPS/PtdIns(4,5)P2 (77:20:3) LUVs. The proteins were incubated with a given concentration of IP3 for 5 minutes before injecting into the SPR instrument. Kinetic SPR measurements were performed in 20 mM Tris-HCL, pH 7.4, containing 0.16 KCl. […] A lower concentration of DAN-eENTH was used than that of PLCδ PH because the former has much higher affinity that the latter.
(§3) All mutations (S4W, M10C, and C96A) were performed by polymerase chain reaction mutagenesis and verified by DNA sequencing. eENTH may comprise the following sequence:
(§4) E. coli BL21 RIL codon plus (Stratagene) cells were used for protein expression. Cells were grown in Luria broth media containing 100 μg/ml of ampicillin at 37° C. 0.1 mM of Isopropyl β-D-1-thiogalactopyranoside was added to induce over-expression of recombinant proteins when the OD600 reached 0.5-0.8 and cells were grown for additional 6 to 10 hours at 25° C. Cells were harvested by centrifugation and cell pellets were resuspended in 50 mM Tris-HCl buffer (pH 7.4) containing 160 mM KCl, 1 mM phenylmethanesulphonylfluoride, and 5 mM of dithiothreitol (DTT). Cells were lysed by sonication and the lysate was collected by centrifugation at 4° C. The GST-affinity resin (GenScript) for GST-tagged proteins or nickel-nitrilotriacetic acid resin (Qiagen, Valencia, Calif.) for His6-tagged proteins was added into the cell lysate and the mixture was gently shaken for 30 minutes at 4° C. The mixture was applied to a column and the column was washed once with 50 mM Tris-HCl buffer (pH 7.4) containing 160 mM KCl and 5 mM of DTT to reduce thiol group, and washed several times with the same buffer without DTT to remove DTT. For DAN labeling, 100 μg of acrylodan was added to the column at this stage and incubated 16 hours at 4° C. The excess acrylodan was removed by washing the column with the buffer several times. Thrombin (Invitrogen) was added to column to remove the GST tag and the mixture was incubated at 4° C. for 10 hours. The labeled protein was eluted from the column by and the collected fractions were applied to ion exchange column. Purity and the concentration of the recombinant proteins were determined by sodium dodecylsulfate-polyacrylamide gel electrophoresis and bicinchoninic acid assay, respectively. The DAN labeling yield of eENTH, which was calculated as the molar ratio of DAN (determined spectrophotometrically at 391 nm using its extinction coefficient of 20,000 cm^−1 M^−1) to protein, was typically 60-70%.
LUVs were prepared by extrusion using a 100 nm-pore membrane. GUVs were prepared by electroformation. […]

[3] = target: T3, epsin 1 ENTH domain (SEQ ID NO: 1) variant C96A (Homo sapiens, UniProt Q9Y6I3, C96A); test: SPR equilibrium binding of epsin1 ENTH C96A to phosphoinositide-containing LUVs
T3 construct: The Epsin1 ENTH domain (1-158 amino acids) was subcloned; GST (C, cleaved yes); made in house; host or cells: E. coli BL21 RIL codon plus
T3 sequence (Q9Y6I3 1-158 C96A): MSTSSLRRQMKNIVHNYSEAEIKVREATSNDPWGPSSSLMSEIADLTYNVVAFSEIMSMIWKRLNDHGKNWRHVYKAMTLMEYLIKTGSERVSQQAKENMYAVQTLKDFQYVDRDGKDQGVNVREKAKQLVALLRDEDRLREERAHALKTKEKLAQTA
Description: as §1, §2, §3
E. coli BL21 RIL codon plus (Stratagene) cells were used for protein expression. Cells were grown in Luria broth media containing 100 μg/ml of ampicillin at 37° C. 0.1 mM of Isopropyl β-D-1-thiogalactopyranoside was added to induce over-expression of recombinant proteins when the OD600 reached 0.5-0.8 and cells were grown for additional 6 to 10 hours at 25° C. Cells were harvested by centrifugation and cell pellets were resuspended in 50 mM Tris-HCl buffer (pH 7.4) containing 160 mM KCl, 1 mM phenylmethanesulphonylfluoride, and 5 mM of dithiothreitol (DTT). Cells were lysed by sonication and the lysate was collected by centrifugation at 4° C. […] Purity and the concentration of the recombinant proteins were determined by sodium dodecylsulfate-polyacrylamide gel electrophoresis and bicinchoninic acid assay, respectively. The DAN labeling yield of eENTH, which was calculated as the molar ratio of DAN (determined spectrophotometrically at 391 nm using its extinction coefficient of 20,000 cm^−1 M^−1) to protein, was typically 60-70%. […]

[4] = target: T4, epsin 1 ENTH domain, wild type, SEQ ID NO: 1 (Homo sapiens, UniProt Q9Y6I3); test: SPR equilibrium binding of epsin1 ENTH domain (wild type) to phosphoinositide-containing LUVs; conditions: SPR
T4 construct: The Epsin1 ENTH domain (1-158 amino acids) was subcloned; GST (C, cleaved yes); made in house; host or cells: E. coli BL21 RIL codon plus
T4 sequence (Q9Y6I3 1-158): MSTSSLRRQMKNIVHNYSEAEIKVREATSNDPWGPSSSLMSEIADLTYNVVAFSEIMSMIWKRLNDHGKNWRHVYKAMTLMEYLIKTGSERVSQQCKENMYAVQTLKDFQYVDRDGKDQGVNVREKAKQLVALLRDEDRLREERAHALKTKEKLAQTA
Description: as §1, §2
The Epsin1 ENTH domain (1-158 amino acids) was subcloned into the pGEX4T-1 vector and expressed as a […] glutathione S-transferase (GST)-tagged protein. The ENTH domain amino acid sequence is as follows:
as §4, with “Thrombin (Invitrogen) was added to column to remove the GST tag and the mixture was incubated at 4° C. for 10 hours. The labeled protein was eluted from the column by and the collected fractions were applied to ion exchange column.” left out, “60-70%. […]” for “60-70%.”

[5] = system: NIH 3T3 cells; test: Change of plasma membrane [PtdIns(4,5)P2]s on stimulation, quantified with DAN-eENTH; type: cell-based; conditions: 1 μM insulin
Experimental: (§5) DAN-eENTH was delivered into NIH 3T3 cells by microinjection for live cell imaging and determined cellular [PtdIns(4,5)P2] by the ratiometric analysis. The green channel (FIG. 10a) representing both PtdIns(4,5)P2-bound and free DAN-eENTH illustrates that the sensor is successfully loaded into cells and randomly distributed in the cytosol, the nucleus, and the plasma membrane. […] When [PtdIns(4,5)P2]s in the PM was determined in a time-dependent manner by either single-channel 9FB) or ratiometric (FB/FG) analysis using the calibration curve (FIG. 2c or 2d), dramatic local heterogeneity of [PtdIns(4,5)P2]s was clearly visible at a given time ((FIG. 9c). […] In FIG. 7, the different angles represent different locations in the plasma membrane. […] That is, PtdIns(4,5)P2 can be locally enriched, but only transiently, in the quiescent cells. […] Also, the change in [PtdIns(4,5)P2]s was monitored in response to physiological stimuli, ATP and insulin. […]
(§6) NIH 3T3 cells were seeded into 8-well plates and grown at 37° C. in a humidified atmosphere of 95% air and 5% CO2 in Dulbecco's modified Eagle's medium (DMEM) (Invitrogen) supplemented with 10% (v/v) fatal bovine serum (Invitrogen). […] Thus, the cellular [PtdIns(4,5)P2] was determined from the observed (FB/FG) values using the in vitro calibration curve determined using POPC/POPS/PtdIns(4,5)P2 GUVs.

[6] = system: NIH 3T3 cells; test: Cellular distribution of microinjected sensor in live cells; type: cell-based; conditions: FIG. 6
Experimental: as §5, §6

[7] = Equilibrium SPR binding to other phosphoinositide vesicles; conditions: POPC/POPS/phosphoinositide (77:20:3) vesicles; no significant SPR response signal with injection of 1 μM protein
[8] = SPR analysis of lipid selectivity of Lact-C2 and mutant; type: binding; conditions: FIG. 12(a), 12(b)
Description: The Lact-C2 domain was converted into a PA-specific protein through protein engineering based on the crystal structure of Lact-C2 (J. Biol. Chem., (283)7230-7241 (2008)) and our molecular insight into PA and PS binding proteins. In the crystal structure, D80, H83, and Q85 interact with the serine head group of PS, so we mutated them to R, E, and K, respectively, to abrogate PS binding. Since PA has higher negative charge density without the head group, a mutant without PS binding may still interact with PA with high affinity. […] PA formation in NIH 3T3 cells in the presence of the phorbol ester, PMA, was successfully quantified.

[9] = POPC/POPS/PtdIns(3,4)P2 (77:20:3) LUVs, read-out: Kd for PtdIns(3,4)P2
[10] = POPC/POPS/PtdIns(3,4,5)P3 (77:20:3) LUVs, read-out: Kd for PtdIns(3,4,5)P3

Q: Which results are given for `CCCCCCCCCCCCCCCC(=O)OC[C@H](COP(=O)(O)O[C@H]1[C@H](O)[C@@H](O)[C@H](OP(=O)(O)O)[C@@H](OP(=O)(O)O)[C@H]1O)OC(=O)CCCCCCCCCCCCCCC` [PtdIns(3,4)P2]?
A: Kd [1, 9]: 350 nM; Kd [2, 9]: 50 nM; Kd [3, 9]: 190 nM; Kd [4, 9]: 180 nM

Q: For `CCCCCCCCCCCCCCCC(=O)OC[C@H](COP(=O)(O)O[C@H]1[C@H](O)[C@@H](OP(=O)(O)O)[C@H](OP(=O)(O)O)[C@@H](OP(=O)(O)O)[C@H]1O)OC(=O)CCCCCCCCCCCCCCC` [PtdIns(3,4,5)P3, phosphatidylinositol-3,4,5-trisphosphate], which Kd [1, 10] is on record?
A: 480 nM

Q: What about the Kd [2, 10] of the same molecule?
A: 44 nM

Q: What about the Kd [3, 10] of the same molecule?
A: 200 nM

Q: And the Kd [4, 10]?
A: 210 nM

Q: Which “reduction in spatially averaged [PtdIns(4,5)P2]s in the plasma membrane” value [5] does the source give for insulin here?
A: ~10%

B1: DAN-eENTH: eENTH (M10C, C96A, S4W) linked via C10 to 2-dimethylamino-6-acyl-naphthalene (DAN); PtdIns(4,5)P2 sensor (conjugate)
chain: MSTWSLRRQCKNIVHNYSEAEIKVREATSNDPWGPSSSLMSEIADLTYNVVAFSEIMSMIWKRLNDHGKNWRHVYKAMTLMEYLIKTGSERVSQQAKENMYAVQTLKDFQYVDRDGKDQGVNVREKAKQLVALLRDEDRLREERAHALKTKEKLAQTA
modifications: DAN fluorophore on Cys10; Modified ENTH domain of Epsin 1.
notes: eENTH (M10C, C96A, S4W) linked via C10 to 2-dimethylamino-6-acyl-naphthalene (DAN); PtdIns(4,5)P2 sensor
Q: For B1, which “cellular localization after microinjection” value [6] is on record?
A: mainly enriched in the plasma membrane

Q: What about the Kd [7] of the same molecule?
A: > 1000 nM

B2: Lact-C2: C2 domain of bovine lactadherin, SEQ ID NO:3 (protein)
chain: CTEPLGLKDNTIPNKQITASSYYKTWGLSAFSWFPYYARLDNQGKFNAWTAQTNSASEWLQIDLGSQKRVTGIITQGARDFGHIQYVAAYRVAYGDDGVTWTEYKDPGASESKIFPGNMDNNSHKKNIFETPFQARFVRIQPVAWHNRITLRVELLGC
modifications: C2 domain of bovine lactadherin.
Q: For B2, which “lipid selectivity by SPR” value [8] is on record?
A: PS-specific
